Results as given in US7544476B1, “Identifying cancers sensitive to treatment with inhibitors of notch signaling” (AVEO Pharmaceuticals, Inc., priority 2008, dated 2009).

How the values were obtained:
[1] = test system: mouse tumors that did not exhibit elevated Notch1 expression; assay: Cell viability assay on disaggregated retroviral-induced tumors treated with GSI; type: cell-based; conditions: mouse tumors without elevated Notch1 expression
Protocol: (§1) To perform the analyses on the retroviral-induced tumors, tumor-bearing animals were euthanized, tumors were collected and 0.2 g pieces were disaggregated using 4 mg/ml collagenase in RPMI media for 2 hours at 37° C. Cells were further disaggregated by passage through an 18 G needle 5-10 times. Single cells in suspension were aspirated in the supernatant for further analysis. For cell viability assays, single cells were re-seeded at 100,000 cell per well in 12-well plates in RPMI media supplemented with 10% FBS, 1% PenStrep, and 0.01 μM Beta estradiol. Cells were then treated for 48 hours with 1, 3 or 10 μM GSI (Sigma L-685,458) or vehicle control. Cell viability and apoptosis were assessed using Guava PCA-96 Viacount Flex reagent (Cat. No. 4700-0060) and measured using a Guava PCA-96 instrument, according to manufacturer's protocol. To measure mRNA expression levels, fresh tumor samples were collected, RNA was prepared using standard protocols, and microarray gene expression profile analysis was performed using Agilent cDNA microarray chips according to manufacturer's recommended protocols. Relative expression of HeyL and other genes was calculated by comparison to a universal mouse reference RNA sample from Stratagene (Universal Mouse Reference RNA Cat. No. 740100). […]

[2] = test system: HT-29 colon cancer cell line; assay: Notch target gene expression by qRT-PCR after treatment with gamma-secretase inhibitor; type: cell-based, human
Protocol: (§2) Cells were seeded into 6-well plates in 2 mL of media. Replicates wells of cells treated with 1 μM, 3 μM, and 6 μM Gamma Secretase Inhibitor (GSI; Sigma L-685,458) or DMSO (Sigma D2650) (vehicle control) immediately after seeding. Cells were incubated at 37° C. 5% CO2 for 20 hours after treatment, then collected, rinsed with PBS (Invitrogen 14040-133), and cell pellets were frozen on dry ice and stored at −80° C. Subsequently, RNA was prepared by hand using the Qiagen RNeasy™ miniprep columns (Qiagen GR8RNA) and qRT-PCR performed to analyze Notch target gene expression according to standard protocol (Qiagen Quantitect SYBR GREEN RT-PCR kit 204245). Quantitative RT-PCR was run on Applied Biosystems 7900HT Sequence Detection System. Results were analyzed using the comparative Ct method. Beta Actin was used as the housekeeping gene and Stratagene Universal Human Reference RNA (Stratagene Cat. No. 740000) was used as an external reference sample to determine the level of expression of the Notch target genes Hes1, Hes5, Hes6, Hes7, Hey1, Hey2, HeyL, and Helt.

[3] = test system: LS-1034 colon cancer cell line; assay: as above; type: cell-based, human
Protocol: as §2

[4] = test system: mouse tumors with enhanced expression of Notch1 caused by Mo-MuLV integration near the Notch1 locus; assay: Cell viability assay on disaggregated retroviral-induced tumors treated with GSI; type: cell-based
Protocol: To perform the analyses on the retroviral-induced tumors, tumor-bearing animals were euthanized, tumors were collected and 0.2 g pieces were disaggregated using 4 mg/ml collagenase in RPMI media for 2 hours at 37° C. Cells were further disaggregated by passage through an 18 G needle 5-10 times. Single cells in suspension were aspirated in the supernatant for further analysis.
as §1, with “For” for “To perform the analyses on the retroviral-induced tumors, tumor-bearing animals were euthanized, tumors were collected and 0.2 g pieces were disaggregated using 4 mg/ml collagenase in RPMI media for 2 hours at 37° C. Cells were further disaggregated by passage through an 18 G needle 5-10 times. Single cells in suspension were aspirated in the supernatant for further analysis. For”

SMILES: CC(C)C[C@H](NC(=O)[C@H](Cc1ccccc1)C[C@@H](O)[C@H](Cc1ccccc1)NC(=O)OC(C)(C)C)C(=O)N[C@@H](Cc1ccccc1)C(N)=O [GSI]
- sensitivity of tumor growth to inhibition by GSI [1]: not sensitive
- expression of Notch target genes [2]: decreases expression of Notch target genes
- expression of Notch target genes [3]: decreases expression of Notch target genes
- sensitivity of tumor growth to inhibition by GSI [4]: sensitivity to inhibition
